According to publication PMC8750417, “Intracellular Amplifiers of Reactive Oxygen Species Affecting Mitochondria as Radiosensitizers” (Cancers, 2021):

Key:
A2780 cells [1] = test: Total intracellular ROS (CM-DCFH-DA), A2780; type: cell-based, human; conditions: 2 h
Method: Monitoring total intracellular ROS (tROS)
A2780 cells were seeded in RPMI 1640 medium containing 5% FBS, 1% L-glutamine and 1% penicillin/streptomycin in a 24-well microtiter plate (total volume 0.5 mL) at a density of 200 cells/µL one day before the experiment. On the day of the experiment, the cells were washed twice with DPBS buffer and the medium was replaced with HBSS (Hanks' Balanced Salt solution, 500 μL). CM-DCFH-DA (5-(6-)chloromethyl-2',7'- dichlorodihydrofluorescein diacetate, Thermo- Fisher) solution (0.1 mM in DMSO, 5 μL) was added (final concentration 1 µM) and the cells were incubated in the dark chamber filled with CO2 (5%) at 37 °C for 15 min. […] Finally, the fluorescence of live cells (λex = 488 nm, λem = 525 nm) in the suspensions was determined by using flow cytometry (Figure 4A, 5C).
Intracellular ROS release in Jurkat cells was monitored analogously (Figure S58).
Figure S58. […] OY-axis “Fluorescence”: the increase of the mean fluorescence (λex = 488 […]

A2780 cells [2] = test: Mechanism of death of A2780 cells (Annexin A5/PI flow cytometry); type: cell-based, human; conditions: A2780, 48 h
Method: Figure S54. Effect of prodrugs 1 and 2c (48 h incubation) on the intracellular amount of GSH in Jurkat cells. *: p< 0.05; ns: non-significant (Student’s t test). Detailed experimental description is provided above.
Study of the mechanism of death of A2780 cells induced by prodrug 2c and controls A2780 cells were seeded into 96 well culture plates at the same cell concentration and in the same medium as applied for the above described MTT assay (48 h incubation with the prodrugs). The next day, stock solutions of prodrugs of different concentrations (1 µ L, solvent DMSO, final concentrations in wells were 5, 10 and 30 µ M) or carrier only (DMSO, 1 µ L, final concentration 1 %, v/v) were added to the wells and incubated in the chamber filled with CO 2 (5%). After 48 h supernatants were transferred into 1.5 mL Eppendorf tubes and 100 µ L of DPBS was added to transfer supernatant residue into tube. Trypsin (0.25%, 50 µ L) was then added to well to detach the cells. All supernatants in Eppendorf tubes were combined back into wells. After gently pipetting up and down, 50 µ L of cell solutions was transferred into a new Eppendorf tube and incubated with 200 µ L of staining solution, consisting of Annexin A5-Fitc (5 µ L) and propidium iodide (PI, 330 ng) per 1 mL buffer (conc. 1X). […]

Compound: CC1(C)OB(c2ccc(COC(=O)N(Cc3cn(Cc4ccc(Cn5cc(Cc6ccccc6)nn5)cc4)nn3)[c-]3cccc3)cc2)OC1(C)C.[Fe+2].c1cc[cH-]c1 [2c]
- total ROS (tROS) vs background (A2780 cells [1]): significantly higher than its background levels
- mechanism of cell death (A2780 cells [2]): mainly via necrosis
